Measured values as given in patent US6872805B2 (Bristol-Myers Squibb Company, priority 2000, dated 2005).

Experiments:
[1] = biological target: HCV NS3/4A protease complex (Hepatitis C virus genotype 1a, UniProt P27958, C1454S/C1711G); assay: Recombinant HCV NS3/4A protease complex FRET peptide assay (strain not stated); type: biochemical; details: IC50, NS3/4A protease enzyme assay, strain not stated; activity ranges
[2] = system: HCV replicon in Huh7 cells; assay: HCV replicon cell-based assay; parameters: species or system HCV strain 1B; details: Hepatitis C virus, Huh-7, 96 h; HCV replicon, Huh7 cells, 4 days; activity ranges; read-out: EC50
Source text: An HCV replicon whole cell system was established as described by Lohmann V, Korner F, Koch J, Herian U, Theilmann L, Bartenschlager R., Science 285(5424):110-3 (1999). This system enabled us to evaluate the effects of our HCV Protease compounds on HCV RNA replication. Briefly, using the HCV strain 1B sequence described in the Lohmann paper (Assession number:AJ238799), an HCV cDNA was generated encoding the 5′ internal ribosome entry site (IRES), the neo gene, the EMCV-IRES and the HCV nonstructural proteins, NS3-NS5B, and 3′ NTR. […] Resulting cell lines were characterized for positive and negative RNA production and protein production over time.
Huh7 cells, constitutively expressing the HCV replicon, were grown in DMEM containing 10% FCS (Fetal calf serum) and 1 mg/ml G418 (Gibco-BRL). Cells were seeded the night before (1.5×10^4 cells/well) in 96-well tissue-culture sterile plates. Compound was prepared in DMEM containing 4% FCS, 1:100 Penicillin/Streptomysin, 1:100 L-glutamine and 0.5% DMSO. Compound/DMSO mixes were added to the cells and incubated for 4 days at 37° C. After 4 days, cells were either lyzed using the Rneasy kit (Qiagen) to isolate and purify RNA for an EC50 determination or assessed for cytotoxicity using alamar Blue (Trek Diagnotstic Systems) for a CC50 reading. For an EC50 determination, purified total RNA was normalized using RiboGreen (Jones L J, Yue S T, Cheung C Y, Singer V L, Anal. Chem., 265(2):368-74 (1998)) and relative quantitation of HCV RNA expression assessed using the Taqmann procedure (Kolykhalov A A, Mihalik K, Feinstone S M, Rice C M, Journal of Virology 74, 2046-2051 (2000)). Briefly, RNA made to a volume of 5 μl (≦1 ng) was added to a 20 μl Ready-Mix containing the following: 5×EZ rTth buffer, 3 mM MnOAc2, 3 mM dNTPs, 200 nM forward primer, 600 nM reverse primer, 100 nM probe and rTth polymerase. Samples containing known concentrations of HCV RNA transcript were run as standards. Using the following cycling protocol (95° C., 1 min; 60° C., 0.5 min; 95° C., 2 min; 40 cycles of 94° C., 0.5 min, 60° C.; 1 min; and completing with 60° C., 10 min), HCV RNA expression was quantitated as described in the Perkin Elmer manual. The toxicity of compound (CC50) was determined by adding 1/10th volume of alamar Blue to the media incubating the cells. After 4 hr, the fluorescence signal from each well was read, with an excitation wavelength at 530 nm and an emission wavelength of 580 nm, using the Cytofluor Series 4000 (Perspective Biosystems).

Sequence of HCV NS3/4A protease complex (P27958 1027-1711, stated change not applied): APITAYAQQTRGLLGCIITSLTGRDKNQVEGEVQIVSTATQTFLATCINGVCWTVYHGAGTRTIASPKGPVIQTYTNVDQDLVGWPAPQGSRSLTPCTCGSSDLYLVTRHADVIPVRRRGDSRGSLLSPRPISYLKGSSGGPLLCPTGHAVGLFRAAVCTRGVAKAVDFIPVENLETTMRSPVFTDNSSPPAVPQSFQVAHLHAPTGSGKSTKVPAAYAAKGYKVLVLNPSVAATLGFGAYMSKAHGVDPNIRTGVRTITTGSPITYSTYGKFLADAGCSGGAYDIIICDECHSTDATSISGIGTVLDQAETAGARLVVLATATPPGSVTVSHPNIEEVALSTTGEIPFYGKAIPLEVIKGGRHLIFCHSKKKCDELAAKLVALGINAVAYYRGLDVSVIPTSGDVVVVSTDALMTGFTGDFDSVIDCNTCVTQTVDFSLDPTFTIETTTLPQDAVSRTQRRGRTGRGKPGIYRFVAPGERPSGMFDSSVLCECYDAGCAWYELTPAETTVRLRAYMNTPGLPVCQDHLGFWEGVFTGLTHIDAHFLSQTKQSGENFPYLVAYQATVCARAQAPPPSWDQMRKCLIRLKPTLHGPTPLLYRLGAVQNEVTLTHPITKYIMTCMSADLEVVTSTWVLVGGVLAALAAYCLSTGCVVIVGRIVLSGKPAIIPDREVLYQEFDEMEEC
Sequence of HCV NS3/4A protease complex (P27958 1027-1711, stated change not applied): as above

SMILES | IC50 [1] | EC50 [2]
C=CC1C[C@]1(NC(=O)[C@@H]1C[C@@H](Oc2cc(-c3ccccc3)nc3cc(OC)ccc23)CN1C(=O)[C@@H](NC(=O)OC(C)(C)C)C(C)(C)C)C(=O)NS(=O)(=O)C(C)C (some centres unmarked) [Compound 27] | < 50 nM | < 500 nM
C=CC1C[C@]1(NC(=O)[C@@H]1C[C@@H](Oc2cc(-c3ccccc3)nc3cc(OC)ccc23)CN1C(=O)[C@@H](N)C(C)(C)C)C(=O)NS(=O)(=O)C1CC1 (some centres unmarked) [Compound 28] | < 50 nM | < 5000 nM
C=CC1C[C@]1(NC(=O)[C@@H]1C[C@@H](Oc2cc(-c3ccccc3)nc3cc(OC)ccc23)CN1C(=O)[C@@H](NC(=O)OC(C)(C)C)C1CCCC1)C(=O)NS(=O)(=O)C1CC1 (some centres unmarked) [Compound 29] | < 50 nM | < 50 nM
C=CC1C[C@]1(NC(=O)[C@@H]1C[C@@H](Oc2cc(-c3ccccc3)nc3cc(OC)ccc23)CN1C(=O)[C@@H](NC(=O)OC(C)(C)C)C1CCCC1)C(=O)NS(=O)(=O)C(C)C (some centres unmarked) [Compound 30] | < 50 nM | < 50 nM
C=CC1C[C@]1(NC(=O)[C@@H]1C[C@@H](Oc2cc(-c3ccccc3)nc3cc(OC)ccc23)CN1C(=O)[C@@H](NC(=O)OC(C)(C)C)C(C)C)C(=O)NS(=O)(=O)C1CC1 (some centres unmarked) [Compound 31] | < 50 nM | < 50 nM
C=CC1C[C@]1(NC(=O)[C@@H]1C[C@@H](Oc2cc(-c3ccccc3)nc3cc(OC)ccc23)CN1C(=O)[C@@H](NC(=O)OC(C)(C)C)C(C)C)C(=O)NS(=O)(=O)C(C)C (some centres unmarked) [Compound 32] | < 50 nM | < 50 nM
C=CC1C[C@]1(NC(=O)[C@@H]1C[C@@H](Oc2cc(-c3ccccc3)nc3cc(OC)ccc23)CN1C(=O)[C@H](CC(C)C)NC(=O)OC(C)(C)C)C(=O)NS(=O)(=O)C1CC1 (some centres unmarked) [Compound 33] | < 50 nM | < 50 nM
C=CC1C[C@]1(NC(=O)[C@@H]1C[C@@H](Oc2cc(-c3ccccc3)nc3cc(OC)ccc23)CN1C(=O)[C@H](CC(C)C)NC(=O)OC(C)(C)C)C(=O)NS(=O)(=O)C(C)C (some centres unmarked) [Compound 34] | < 50 nM | < 500 nM
C=CC1C[C@]1(NC(=O)[C@@H]1C[C@@H](Oc2cc(-c3ccccc3)nc3cc(OC)ccc23)CN1C(=O)C(NC(=O)OC(C)(C)C)C(C)(C)C)C(=O)NS(=O)(=O)c1cccc2ccccc12 (some centres unmarked) [Compound 35] | < 50 nM | < 500 nM
C=CCC[C@](C)(NC(=O)[C@@H]1C[C@@H](Oc2cc(-c3ccccc3)nc3cc(OC)ccc23)CN1C(=O)C(NC(=O)OC(C)(C)C)C(C)(C)C)C(=O)NS(=O)(=O)c1cccc(C)c1 (some centres unmarked) [Compound 36] | < 50 nM | < 500 nM
C=CCC[C@](C)(NC(=O)[C@@H]1C[C@@H](Oc2cc(-c3ccccc3)nc3cc(OC)ccc23)CN1C(=O)C(NC(=O)OC(C)(C)C)C(C)(C)C)C(=O)NS(=O)(=O)c1ccc(C)cc1 (some centres unmarked) [Compound 37] | < 50 nM | < 50 nM
C=CCC[C@](C)(NC(=O)[C@@H]1C[C@@H](Oc2cc(-c3ccccc3)nc3cc(OC)ccc23)CN1C(=O)C(NC(=O)OC(C)(C)C)C(C)(C)C)C(=O)NS(=O)(=O)c1ccccc1 (some centres unmarked) [Compound 38] | < 50 nM | < 50 nM
C=CCC[C@](C)(NC(=O)[C@@H]1C[C@@H](Oc2cc(-c3ccccc3)nc3cc(OC)ccc23)CN1C(=O)C(NC(=O)OC(C)(C)C)C(C)(C)C)C(=O)NS(=O)(=O)c1cccc(C#N)c1 (some centres unmarked) [Compound 40] | < 50 nM | < 500 nM
C=CCC[C@](C)(NC(=O)[C@@H]1C[C@@H](Oc2cc(-c3ccccc3)nc3cc(OC)ccc23)CN1C(=O)C(NC(=O)OC(C)(C)C)C(C)(C)C)C(=O)NS(=O)(=O)c1ccc(C#N)cc1 (some centres unmarked) [Compound 41] | < 50 nM | < 500 nM
C=CCC[C@](C)(NC(=O)[C@@H]1C[C@@H](Oc2cc(-c3ccccc3)nc3cc(OC)ccc23)CN1C(=O)C(NC(=O)OC(C)(C)C)C(C)(C)C)C(=O)NS(=O)(=O)c1ccccc1Cl (some centres unmarked) [Compound 42] | < 50 nM | < 500 nM
C=CCC[C@](C)(NC(=O)[C@@H]1C[C@@H](Oc2cc(-c3ccccc3)nc3cc(OC)ccc23)CN1C(=O)C(NC(=O)OC(C)(C)C)C(C)(C)C)C(=O)NS(=O)(=O)c1cccc(Cl)c1 (some centres unmarked) [Compound 43] | < 50 nM | < 500 nM

SMILES | IC50 [1] | EC50 [2]
C=CCC[C@](C)(NC(=O)[C@@H]1C[C@@H](Oc2cc(-c3ccccc3)nc3cc(OC)ccc23)CN1C(=O)C(NC(=O)OC(C)(C)C)C(C)(C)C)C(=O)NS(=O)(=O)c1ccc(Cl)cc1 (some centres unmarked) [Compound 44] | < 50 nM | < 500 nM
C=CCC[C@](C)(NC(=O)[C@@H]1C[C@@H](Oc2cc(-c3ccccc3)nc3cc(OC)ccc23)CN1C(=O)C(NC(=O)OC(C)(C)C)C(C)(C)C)C(=O)NS(=O)(=O)c1ccc(F)c(Cl)c1 (some centres unmarked) [Compound 45] | < 50 nM | < 500 nM
C=C1C[C@]1(NC(=O)[C@@H]1C[C@@H](Oc2cc(-c3ccccc3)nc3cc(OC)ccc23)CN1C(=O)C(NC(=O)OC(C)(C)C)C(C)(C)C)C(=O)NS(=O)(=O)c1cc(F)ccc1C (some centres unmarked) [Compound 46] | < 50 nM | < 500 nM
C=C1C[C@]1(NC(=O)[C@@H]1C[C@@H](Oc2cc(-c3ccccc3)nc3cc(OC)ccc23)CN1C(=O)C(NC(=O)OC(C)(C)C)C(C)(C)C)C(=O)NS(=O)(=O)c1ccccc1C(F)(F)F (some centres unmarked) [Compound 47] | < 50 nM | < 500 nM
C=C1C[C@]1(NC(=O)[C@@H]1C[C@@H](Oc2cc(-c3ccccc3)nc3cc(OC)ccc23)CN1C(=O)C(NC(=O)OC(C)(C)C)C(C)(C)C)C(=O)NS(=O)(=O)c1cccc(C(F)(F)F)c1 (some centres unmarked) [Compound 48] | < 50 nM | < 500 nM
C=C1C[C@]1(NC(=O)[C@@H]1C[C@@H](Oc2cc(-c3ccccc3)nc3cc(OC)ccc23)CN1C(=O)C(NC(=O)OC(C)(C)C)C(C)(C)C)C(=O)NS(=O)(=O)c1ccc(F)cc1 (some centres unmarked) [Compound 49] | < 50 nM | < 500 nM
C=CC1C[C@]1(NC(=O)[C@@H]1C[C@@H](Oc2cc(-c3ccccc3)nc3cc(OC)ccc23)CN1C(=O)[C@@H](NC(=O)OC(C)(C)C)C(C)(C)C)C(=O)NS(=O)(=O)c1ccccc1C#N (some centres unmarked) [Compound 50] | < 500 nM | < 5000 nM
C=CC1C[C@]1(NC(=O)[C@@H]1C[C@@H](Oc2cc(-c3ccccc3)nc3cc(OC)ccc23)CN1C(=O)[C@@H](NC(=O)OC(C)(C)C)C(C)(C)C)C(=O)NS(=O)(=O)c1ccccc1[N+](=O)[O-] (some centres unmarked) [Compound 51] | < 50 nM | < 500 nM
C=CC1C[C@]1(NC(=O)[C@@H]1C[C@@H](Oc2cc(-c3ccccc3)nc3cc(OC)ccc23)CN1C(=O)[C@@H](NC(=O)OC(C)(C)C)C(C)(C)C)C(=O)NS(=O)(=O)c1ccc([N+](=O)[O-])cc1 (some centres unmarked) [Compound 52] | < 500 nM | < 500 nM
C=CC1C[C@]1(NC(=O)[C@@H]1C[C@@H](Oc2cc(-c3ccccc3)nc3cc(OC)ccc23)CN1C(=O)[C@@H](NC(=O)OC(C)(C)C)C(C)(C)C)C(=O)NS(=O)(=O)c1cccc([N+](=O)[O-])c1 (some centres unmarked) [Compound 53] | < 50 nM | < 50000 nM
C=C1C[C@]1(NC(=O)[C@@H]1C[C@@H](Oc2cc(-c3ccccc3)nc3cc(OC)ccc23)CN1C(=O)C(NC(=O)OC(C)(C)C)C(C)(C)C)C(=O)NS(=O)(=O)c1ccccc1F (some centres unmarked) [Compound 54] | < 50 nM | < 500 nM
C=C1C[C@]1(NC(=O)[C@@H]1C[C@@H](Oc2cc(-c3ccccc3)nc3cc(OC)ccc23)CN1C(=O)C(NC(=O)OC(C)(C)C)C(C)(C)C)C(=O)NS(=O)(=O)c1cccc(Br)c1 (some centres unmarked) [Compound 55] | < 50 nM | < 50 nM
C=CC1C[C@]1(NC(=O)[C@@H]1C[C@@H](Oc2cc(-c3ccccc3)nc3cc(OC)ccc23)CN1C(=O)C(NC(=O)OC(C)(C)C)C(C)(C)C)C(=O)NS(=O)(=O)c1ccccc1I (some centres unmarked) [Compound 56] | < 50 nM | < 500 nM
C=CC1C[C@]1(NC(=O)[C@@H]1C[C@@H](Oc2cc(-c3ccccc3)nc3cc(OC)ccc23)CN1C(=O)C(NC(=O)OC(C)(C)C)C(C)(C)C)C(=O)NS(=O)(=O)c1ccccc1C(=O)OC (some centres unmarked) [Compound 57] | < 500 nM | < 500 nM
C=CC1C[C@]1(NC(=O)[C@@H]1C[C@@H](Oc2cc(-c3ccccc3)nc3cc(OC)ccc23)CN1C(=O)C(NC(=O)OC(C)(C)C)C(C)(C)C)C(=O)NS(=O)(=O)c1ccc(OC)cc1 (some centres unmarked) [Compound 59] | < 50 nM | < 50 nM
